Results from US10669238B2, “Irreversible bruton's tyrosine kinase inhibitor” (HEFEI INSTITUTES OF PHYSICAL SCIENCE, CHINESE ACADEMY OF …, priority 2016, dated 2020).

Target: BTK protein kinase (Homo sapiens, UniProt Q06187)
Test: In vitro enzymatic activity against BTK (ADP-Glo)
Assay type: biochemical
Details: compound with BTK 4 hours at room temperature; ATP 10 μM, 37° C. 1 hour; values in nM
Protocol: In vitro enzymatic activity of the compounds against BTK was determined in a experimental assay of in vitro enzymatic activity using […] kit (purchased from Progema, USA).
9 μL of BTK protein kinase (at a concentration of 1.5 ng/μL) was used to react with compounds (1 μL) shown in the following table that were diluted three times in gradient at room temperature for 4 hours (the final concentration of the compound being 10 μM, 3 μM, 1 μM, 0.3 μM, 0.1 μM, 0.03 μM, 0.01 μM, 0.003 μM);
2 μL of ATP and 3 μL of the substrate Poly(4:1 Glu, Tyr)Peptide (Promega, USA) (the final concentrations being 10 μM and 0.2 μg/μL, respectively) were added to allow reaction at 37° C. for 1 hour;
5 μL of BTK kinase solution after reaction was taken and added into 5 μL of ADP-Glo™ (Promega, USA) reagent to allow reaction at room temperature for 40 mins so as to terminate the kinase reaction and exhaust the remaining ATP;
10 μL kinase detecting reagent was added to convert ADP to ATP, and newly synthesized ATP was detected using coupled luciferase/[…] reaction, then the IC50 values were calculated by using a plotting method based on the Envision reading.

Chain of BTK protein kinase (Q06187 whole entry): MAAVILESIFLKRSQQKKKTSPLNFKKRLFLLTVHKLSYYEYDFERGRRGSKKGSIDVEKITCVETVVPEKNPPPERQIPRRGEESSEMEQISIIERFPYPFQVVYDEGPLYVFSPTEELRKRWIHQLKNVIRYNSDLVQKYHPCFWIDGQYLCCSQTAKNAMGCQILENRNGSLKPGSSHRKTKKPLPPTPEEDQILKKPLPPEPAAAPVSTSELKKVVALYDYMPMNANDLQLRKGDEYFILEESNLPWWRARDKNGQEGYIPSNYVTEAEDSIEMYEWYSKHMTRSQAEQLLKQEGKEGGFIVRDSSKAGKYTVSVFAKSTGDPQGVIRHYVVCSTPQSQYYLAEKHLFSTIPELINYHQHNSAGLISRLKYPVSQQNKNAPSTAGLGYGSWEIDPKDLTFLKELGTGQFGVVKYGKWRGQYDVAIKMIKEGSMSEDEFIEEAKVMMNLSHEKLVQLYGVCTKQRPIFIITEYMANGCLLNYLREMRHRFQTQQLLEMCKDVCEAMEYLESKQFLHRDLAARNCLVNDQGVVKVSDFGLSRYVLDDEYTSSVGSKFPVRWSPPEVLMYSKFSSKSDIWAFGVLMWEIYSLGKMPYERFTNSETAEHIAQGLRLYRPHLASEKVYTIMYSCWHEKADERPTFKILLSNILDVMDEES

SMILES: CCC(=O)Nc1cc(Nc2cc(-c3cccc(NC(=O)c4ccc(C(C)(C)C)cc4)c3C)cn(C)c2=O)ccc1C(=O)N1CCN(C(=O)OC(C)(C)C)CC1 [Compound 39, tertbutyl 4-(2-propanamide-4-((5-(3-(4-(tert-butyl)benzamide)-2-methylphenyl)-1-methyl-2-oxo-1,2-dihydropyridin-3-yl)amino)benzoyl)piperazin-1-carboxylate]
- IC50: 503 nM

SMILES: CCC(=O)Nc1cc(Nc2cc(-c3cccc(NC(=O)c4ccc(C(C)(C)C)cc4)c3C)cn(C)c2=O)ccc1C(=O)N1CCNCC1 [Compound 41, N-(3-(5-((3-propanamide-4-(piperazin-1-carbonyl)phenyl)amino)-1-methyl-6-oxo-1,6-dihydropyridin-3-yl)-2-methylphenyl)-4-(tert-butyl)benzamide]
- IC50: 42 nM

SMILES: C=CC(=O)Nc1cc(Nc2cc(-c3cccc(NC(=O)c4ccc5c(c4)CCCC5)c3C)cn(C)c2=O)ccc1C(=O)N1CCOCC1 [Compound 43, N-(3-(5-((3-acrylamide-4-(morpholin-4-carbonyl)phenyl)amino)-1-methyl-6-oxo-1,6-dihydropyridin-3-yl)-2-methylphenyl)-5,6,7,8-tetrahydronaphthalene-2-carboxamide]
- IC50: 41 nM

SMILES: C=CC(=O)Nc1cc(Nc2cc(-c3cccc(NC(=O)c4ccc5c(c4)OCCO5)c3C)cn(C)c2=O)ccc1C(=O)N1CCOCC1 [Compound 44, N-(3-(5-((3-acrylamide-4-(morpholin-4-carbonyl)phenyl)amino)-1-methyl-6-oxo-1,6-dihydropyridin-3-yl)-2-methylphenyl)-2,3-dihydrobenzo[b][1,4]dioxin-6-carboxamide]
- IC50: 72 nM

SMILES: C=CC(=O)Nc1cc(Nc2cc(-c3cccc(NC(=O)c4ccc(N5CCCC5)cc4)c3C)cn(C)c2=O)ccc1C(=O)N1CCOCC1 [Compound 45, N-(3-(5-((3-acrylamide-4-(morpholin-4-carbonyl)phenyl)amino)-1-methyl-6-oxo-1,6-dihydropyridin-3-yl)-2-methylphenyl)-4-(pyrrolidin-1-yl)benzoylamide]
- IC50: 101 nM

SMILES: C=CC(=O)Nc1cc(Nc2cc(-c3cccc(NC(=O)c4ccc(C(C)(C)C)cc4)c3C)cn(C)c2=O)ccc1C(=O)NC1CC1 [Compound 46, 2-acrylamide-4-((5-(3-(4-(tert-butyl)benzamide)-2-methylphenyl)-1-methyl-2-oxo-1,2-dihydropyridin-3-yl)amino)-N-cyclopropylbenzoylamide]
- IC50: 45 nM

SMILES: C=CC(=O)Nc1cc(Nc2cc(-c3cccc(NC(=O)c4ccc(C(C)(C)C)cc4)c3C)cn(C)c2=O)ccc1C(=O)N1CCCC(O)C1 (centres unmarked) [Compound 47, N-(3-(5-((3-acrylamide-4-(3-hydroxypiperidin-1-carbonyl)phenyl)amino)-1-methyl-6-oxo-1,6-dihydropyridin-3-yl)-2-methylphenyl)-4-(tert-butyl)benzamide]
- IC50: 24 nM

SMILES: C=CC(=O)Nc1cc(Nc2cc(-c3cccc(NC(=O)c4ccc(C(C)(C)C)cc4)c3C)cn(C)c2=O)ccc1C(=O)OC [Compound 49, 2-acrylamide-4-((5-(3-(4-(tert-butyl)benzamide)-2-methylphenyl)-1-methyl-2-oxo-1,2-dihydropyridin-3-yl)amino)methyl benzoate]
- IC50: 162 nM

SMILES: C=CC(=O)Nc1cc(Nc2cc(-c3cccc(NC(=O)c4ccc(N(C)C)cc4)c3C)cn(C)c2=O)ccc1C(=O)N1CCCCC1 [Compound 50, N-(3-(5-((3-acrylamide-4-(piperidin-1-carbonyl)phenyl)amino)-1-methyl-6-oxo-1,6-dihydropyridin-3-yl)-2-methylphenyl)-4-(dimethylamino)benzoylamide]
- IC50: 91 nM

SMILES: C=CC(=O)Nc1cc(Nc2cc(-c3cccc(NC(=O)c4ccc(N(C)C)cc4)c3C)cn(C)c2=O)ccc1C(=O)NC1CCOCC1 [Compound 51, 2-acrylamide-4-((5-(3-(4-(dimethylamino)benzoylamide)-2-methylphenyl)-1-methyl-2-oxo-1,2-dihydropyridin-3-yl)amino)-N-(tetrahydro-2H-pyran-4-yl)benzoylamide]
- IC50: 89 nM

SMILES: C=CC(=O)Nc1cc(Nc2cc(-c3cccc(NC(=O)c4ccc(N(C)C)cc4)c3C)cn(C)c2=O)ccc1C(=O)N1CCC(OC)CC1 [Compound 52, N-(3-(5-((3-acrylamide-4-(4-methoxypiperidin-1-carbonyl)phenyl)amino)-1-methyl-6-oxo-1,6-dihydropyridin-3-yl)-2-methylphenyl)-4-(dimethylamino)benzoylamide]
- IC50: 586 nM

SMILES: C=CC(=O)Nc1cc(Nc2cc(-c3cccc(NC(=O)c4ccc(N(C)C)cc4)c3C)cn(C)c2=O)ccc1C(=O)NCCOC [Compound 53, 2-acrylamide-4-((5-(3-(4-(dimethylamino)benzoylamide)-2-methylphenyl)-1-methyl-2-oxo-1,2-dihydropyridin-3-yl)amino)-N-(2-methoxyethyl)benzoylamide]
- IC50: 667 nM

SMILES: C=CC(=O)Nc1cc(Nc2cc(-c3cccc(NC(=O)c4ccc(N(C)C)cc4)c3C)cn(C)c2=O)ccc1C(=O)N1CCCC(O)C1 (centres unmarked) [Compound 55, N-(3-(5-((3-acrylamide-4-(3-hydroxypiperdin-1-carbonyl)phenyl)amino)-1-methyl-6-oxo-1,6-dihydropyridin-3-yl)-2-methylphenyl)-4-(dimethylamino)benzoylamide]
- IC50: 181 nM

SMILES: C=CC(=O)Nc1cc(Nc2cc(-c3cccc(NC(=O)c4ccc(N(C)C)cc4)c3C)cn(C)c2=O)ccc1C(=O)N1CCC(O)CC1 [Compound 56, N-(3-(5-((3-acrylamide-4-(4-hydroxypiperdin-1-carbonyl)phenyl)amino)-1-methyl-6-oxo-1,6-dihydropyridin-3-yl)-2-methylphenyl)-4-(dimethylamino)benzoylamide]
- IC50: 124 nM

SMILES: C=CC(=O)Nc1cc(Nc2cc(-c3cccc(NC(=O)c4cccc(C(F)(F)F)c4)c3C)cn(C)c2=O)ccc1C(=O)N1CCOCC1 [Compound 57, N-(3-(5-((3-acrylamide-4-(morpholin-4-carbonyl)phenyl)amino)-1-methyl-6-oxo-1,6-dihydropyridin-3-yl)-2-methylphenyl)-3-(trifluoromethyl)benzoylamide]
- IC50: > 10000 nM

SMILES: C=CC(=O)Nc1cc(Nc2cc(-c3cccc(NC(=O)c4cccc(OC)c4)c3C)cn(C)c2=O)ccc1C(=O)N1CCOCC1 [Compound 59, N-(3-(5-((3-acrylamide-4-(morpholin-4-carbonyl)phenyl)amino)-1-methyl-6-oxo-1,6-dihydropyridin-3-yl)-2-methylphenyl)-3-methoxy Benzoylamide]
- IC50: 816 nM

SMILES: C=CC(=O)Nc1cc(Nc2cc(-c3cccc(NC(=O)c4ccc(C(F)(F)F)cc4)c3C)cn(C)c2=O)ccc1C(=O)N1CCOCC1 [Compound 60, N-(3-(5-((3-acrylamide-4-(morpholin-4-carbonyl)phenyl)amino)-1-methyl-6-oxo-1,6-dihydropyridin-3-yl)-2-methylphenyl)-4-(trifluoromethyl)benzoylamide]
- IC50: 104 nM

SMILES: C=CC(=O)Nc1cc(Nc2cc(-c3cccc(NC(=O)c4ccc(CC)cc4)c3C)cn(C)c2=O)ccc1C(=O)N1CCOCC1 [Compound 62, N-(3-(5-((3-acrylamide-4-(morpholin-4-carbonyl)phenyl)amino)-1-methyl-6-oxo-1,6-dihydropyridin-3-yl)-2-methylphenyl)-4-ethylbenzoylamide]
- IC50: 164 nM

SMILES: C=CC(=O)Nc1cc(Nc2cc(-c3cccc(NC(=O)c4ccc(C)c(C(F)(F)F)c4)c3C)cn(C)c2=O)ccc1C(=O)N1CCOCC1 [Compound 63, N-(3-(5-((3-acrylamide-4-(morpholin-4-carbonyl)phenyl)amino)-1-methyl-6-oxo-1,6-dihydropyridin-3-yl)-2-methylphenyl)-4-methyl-3-(trifluoromethyl)benzoylamide]
- IC50: 800 nM

SMILES: C=CC(=O)Nc1cc(Nc2cc(-c3cccc(NC(=O)c4ccc(C(C)C)cc4)c3C)cn(C)c2=O)ccc1C(=O)N1CCOCC1 [Compound 64, N-(3-(5-((3-acrylamide-4-(morpholin-4-carbonyl)phenyl)amino)-1-methyl-6-oxo-1,6-dihydropyridin-3-yl)-2-methylphenyl)-4-isopropylbenzoylamide]
- IC50: 22 nM

SMILES: C=CC(=O)Nc1cc(Nc2cc(-c3cccc(NC(=O)c4cc5c(s4)CCCC5)c3C)cn(C)c2=O)ccc1C(=O)N1CCOCC1 [Compound 65, N-(3-(5-((3-acrylamide-4-(morpholin-4-carbonyl)phenyl)amino)-1-methyl-6-oxo-1,6-dihydropyridin-3-yl)-2-methylphenyl)-4,5,6,7-tetrahydrobenzo[b]thiophene-2-carboxamide]
- IC50: 25 nM

SMILES: C=CC(=O)Nc1cc(Nc2cc(-c3cccc(NC(=O)c4ccc(C5CC5)cc4)c3C)cn(C)c2=O)ccc1C(=O)N1CCOCC1 [Compound 66, N-(3-(5-((3-acrylamide-4-(morpholin-4-carbonyl)phenyl)amino)-1-methyl-6-oxo-1,6-dihydropyridin-3-yl)-2-methylphenyl)-4-cyclopropylbenzoylamide]
- IC50: 180 nM

SMILES: CCC(=O)Nc1cc(Nc2cc(-c3cccc(NC(=O)c4cc5c(s4)CCCC5)c3C)cn(C)c2=O)ccc1C(=O)N1CCOCC1 [Compound 67, N-(3-(5-((3-propanamide-4-(morpholin-4-carbonyl)phenyl)amino)-1-methyl-6-oxo-1,6-dihydropyridin-3-yl)-2-methylphenyl)-4,5,6,7-tetrahydrobenzo[b]thiophene-2-carboxamide]
- IC50: 25 nM
